In patent US20240092758A1, “IMIDAZOLO INDAZOLE COMPOUNDS AS JAK INHIBITORS” (Theravance Biopharma R&D IP, LLC, priority 2021, published 2024):

Assays:
JAK1 = JAK1 (Homo sapiens (Human), UniProt P23458); test: Biochemical JAK kinase assay (LanthaScreen), JAK1; conditions: for Ki: read-out: JAK1 pKi (converted)
Summary of the method: (§1)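 LanthaScreen format: phospho-STAT1 (pTyr701) detected with 2 nM Tb antibody after 10 mM EDTA quench. Kinase step used Km-level ATP and 200 nM STAT1 peptide, 1 h at ambient after 1 h pre-incubation. Inhibition fitted to IC50, reported as pKi.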

[1] = tested on: IL-13 induced STAT6 phosphorylation in BEAS-2B human lung epithelial cells; test: Cellular JAKI potency assay (BEAS-2B); format: cell-based; conditions: Homo sapiens, BEAS-2B, BEAS-2B cells, read-out: BEAS2B pIC50 (converted)
Summary of the method: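 AlphaLISA SureFire detection of Tyr641 pSTAT6 in lysates gave IC50s (4-parameter fit, expressed as pIC50). Cells: human BEAS-2B, exposed 1 h at 37 °C to compound dose series at 0.1% DMSO, then 30 min to IL-13 added at 80 ng/mL in HEPES-buffered HBSS with BSA.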

JAK2 = JAK2 (Homo sapiens (Human), UniProt O60674); test: Biochemical JAK kinase assay (LanthaScreen), JAK2; conditions: for Ki: read-out: JAK2 pKi (converted)
Sequence of JAK2 (O60674 whole entry): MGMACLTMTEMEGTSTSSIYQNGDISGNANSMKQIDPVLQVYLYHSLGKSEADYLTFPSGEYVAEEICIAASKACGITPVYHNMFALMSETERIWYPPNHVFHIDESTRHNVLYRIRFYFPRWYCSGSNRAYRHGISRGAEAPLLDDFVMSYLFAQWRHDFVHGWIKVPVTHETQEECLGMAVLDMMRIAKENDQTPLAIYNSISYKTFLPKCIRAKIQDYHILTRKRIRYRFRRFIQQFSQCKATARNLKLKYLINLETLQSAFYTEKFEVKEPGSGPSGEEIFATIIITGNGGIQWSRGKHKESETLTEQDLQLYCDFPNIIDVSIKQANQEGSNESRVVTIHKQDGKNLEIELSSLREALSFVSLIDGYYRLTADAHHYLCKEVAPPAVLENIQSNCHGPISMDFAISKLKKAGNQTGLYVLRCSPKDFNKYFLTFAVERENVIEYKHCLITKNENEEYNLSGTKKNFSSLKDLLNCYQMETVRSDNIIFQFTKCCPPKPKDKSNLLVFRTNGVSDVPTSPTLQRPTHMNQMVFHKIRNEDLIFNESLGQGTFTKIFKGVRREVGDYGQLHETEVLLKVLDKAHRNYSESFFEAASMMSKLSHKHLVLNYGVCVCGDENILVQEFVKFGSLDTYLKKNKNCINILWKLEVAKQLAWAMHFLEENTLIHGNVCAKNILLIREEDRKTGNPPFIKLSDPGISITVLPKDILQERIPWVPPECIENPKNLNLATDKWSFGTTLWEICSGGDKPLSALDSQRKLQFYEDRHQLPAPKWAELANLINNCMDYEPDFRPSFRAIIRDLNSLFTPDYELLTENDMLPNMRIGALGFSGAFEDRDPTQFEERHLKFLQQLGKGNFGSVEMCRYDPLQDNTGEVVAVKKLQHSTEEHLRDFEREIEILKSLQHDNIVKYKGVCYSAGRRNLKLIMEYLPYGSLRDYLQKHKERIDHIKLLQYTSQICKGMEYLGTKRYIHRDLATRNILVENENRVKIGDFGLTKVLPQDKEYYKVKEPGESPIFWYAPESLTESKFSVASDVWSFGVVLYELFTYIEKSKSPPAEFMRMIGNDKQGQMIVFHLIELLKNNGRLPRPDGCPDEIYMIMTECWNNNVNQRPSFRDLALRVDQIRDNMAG
Summary of the method: as §1

Sequence of JAK1 (P23458 whole entry): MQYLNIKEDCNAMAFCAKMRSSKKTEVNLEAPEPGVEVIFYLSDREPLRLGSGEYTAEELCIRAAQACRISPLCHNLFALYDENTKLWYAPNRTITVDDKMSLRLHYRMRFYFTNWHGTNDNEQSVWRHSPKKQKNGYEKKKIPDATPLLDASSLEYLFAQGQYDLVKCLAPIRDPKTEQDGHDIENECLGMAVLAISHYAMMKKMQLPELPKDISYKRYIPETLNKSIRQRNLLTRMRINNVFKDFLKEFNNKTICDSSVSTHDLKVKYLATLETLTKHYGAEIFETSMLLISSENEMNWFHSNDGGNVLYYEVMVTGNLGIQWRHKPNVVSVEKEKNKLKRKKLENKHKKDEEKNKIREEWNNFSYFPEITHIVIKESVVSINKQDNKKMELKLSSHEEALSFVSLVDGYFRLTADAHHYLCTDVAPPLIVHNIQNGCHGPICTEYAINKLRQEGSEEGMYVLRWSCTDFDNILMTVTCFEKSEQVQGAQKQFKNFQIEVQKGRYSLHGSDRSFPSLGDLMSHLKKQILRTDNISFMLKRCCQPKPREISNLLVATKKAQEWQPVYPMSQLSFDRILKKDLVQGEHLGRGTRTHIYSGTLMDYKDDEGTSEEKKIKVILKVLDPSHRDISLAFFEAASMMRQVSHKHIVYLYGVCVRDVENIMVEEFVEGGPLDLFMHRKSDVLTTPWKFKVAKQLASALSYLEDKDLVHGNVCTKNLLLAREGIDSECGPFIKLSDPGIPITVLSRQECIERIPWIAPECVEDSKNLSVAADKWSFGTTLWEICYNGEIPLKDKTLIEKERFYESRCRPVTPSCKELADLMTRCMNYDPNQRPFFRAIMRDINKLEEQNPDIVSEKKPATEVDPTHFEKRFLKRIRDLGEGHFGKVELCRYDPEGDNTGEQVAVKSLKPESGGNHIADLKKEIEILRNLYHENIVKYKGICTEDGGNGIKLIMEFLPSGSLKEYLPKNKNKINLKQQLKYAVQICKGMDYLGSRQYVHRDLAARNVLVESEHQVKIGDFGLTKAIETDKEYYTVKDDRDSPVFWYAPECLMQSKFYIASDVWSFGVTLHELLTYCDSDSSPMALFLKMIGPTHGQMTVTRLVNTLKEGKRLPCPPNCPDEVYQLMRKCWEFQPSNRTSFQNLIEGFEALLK

SMILES | Ki (JAK1) [nM] | IC50 [1] [nM] | Ki (JAK2) [nM] | JAK1 pKi (JAK1) | JAK2 pKi (JAK2)
CCc1cc(O)ccc1-c1ccc2c(-c3nc(C4=CCNC4C)c[nH]3)n[nH]c2c1F (stereo not drawn) [Example 313] | 0.1 to 1 | 10 to 31.6 | 0.1 to 1 | – | –
CCc1cc(O)ccc1-c1ccc2c(-c3nc(C4=C[C@H](CCO)NC4)c[nH]3)n[nH]c2c1F [Example 314] | 0.1 to 1 | 10 to 31.6 | 0.1 to 1 | – | –
CCc1cc(O)ccc1-c1ccc2c(-c3nc(C4=C(C(=O)OC(C)C)CCNC4)c[nH]3)n[nH]c2c1F [Example 315] | 0.1 to 1 | 10 to 31.6 | 0.1 to 1 | – | –
CCCCN1CC=C(c2c[nH]c(-c3n[nH]c4c(F)c(-c5ccc(O)cc5CC)ccc34)n2)C1 [Example 316] | – | 10 to 31.6 | – | A (A represents a pKi value ≥10 (Ki≤0.1 nM)) | A (A represents a pKi value ≥10 (Ki≤0.1 nM))
CCc1cc(O)ccc1-c1ccc2c(-c3nc(C4=CCN(CCNC(=O)C5CCC5)CC4)c[nH]3)n[nH]c2c1F [Example 317] | 0.1 to 1 | 10 to 31.6 | 0.1 to 1 | – | –
CCc1cc(O)ccc1-c1ccc2c(-c3nc(C4=CCN(C[C@@H](C)CO)C4)c[nH]3)n[nH]c2c1F [Example 318] | 0.1 to 1 | 10 to 31.6 | 0.1 to 1 | – | –
CCc1cc(O)ccc1-c1ccc2c(-c3nc(C4=CCN[C@H](C)C4)c[nH]3)n[nH]c2c1F [Example 319] | 0.1 to 1 | 10 to 31.6 | 0.1 to 1 | – | –
CCc1cc(O)ccc1-c1ccc2c(-c3nc(C4=CCN(CCC5(O)CC5)C4)c[nH]3)n[nH]c2c1F [Example 320] | 0.1 to 1 | 10 to 31.6 | – | – | A (A represents a pKi value ≥10 (Ki≤0.1 nM))
CCc1cc(O)ccc1-c1ccc2c(-c3nc(C4=CCN(CCC5(O)CC5)CC4)c[nH]3)n[nH]c2c1F [Example 322] | 0.1 to 1 | 10 to 31.6 | 0.1 to 1 | – | –
CCOC(=O)C1=C(c2c[nH]c(-c3n[nH]c4c(F)c(-c5ccc(O)cc5CC)ccc34)n2)CCNC1 [Example 323] | 0.1 to 1 | 10 to 31.6 | 0.1 to 1 | – | –
CCc1cc(O)ccc1-c1ccc2c(-c3nc(C4=CCNCC4C)c[nH]3)n[nH]c2c1F (stereo not drawn) [Example 324] | 0.1 to 1 | 10 to 31.6 | 0.1 to 1 | – | –
CCc1cc(O)ccc1-c1ccc2c(-c3nc(C4=C(C(=O)OC(C)C)CNCC4)c[nH]3)n[nH]c2c1F [Example 325] | 0.1 to 1 | 10 to 31.6 | 0.1 to 1 | – | –
CCc1cc(O)ccc1-c1ccc2c(-c3nc(C4=CCN(Cc5cnoc5)CC4)c[nH]3)n[nH]c2c1F [Example 326] | 0.1 to 1 | 10 to 31.6 | 0.1 to 1 | – | –
CCc1cc(O)ccc1-c1ccc2c(-c3nc(C4=CC(C)CNC4)c[nH]3)n[nH]c2c1F (stereo not drawn) [Example 327] | 0.1 to 1 | 10 to 31.6 | 0.1 to 1 | – | –
CCc1cc(O)c(C)cc1-c1ccc2c(-c3nc(C4=CCNC4)c[nH]3)n[nH]c2c1F [Example 328] | 0.1 to 1 | 10 to 31.6 | 1 to 10 | – | –
CCc1cc(O)ccc1-c1ccc2c(-c3nc(C4=C[C@H](CO)N(CCC(C)(C)O)C4)c[nH]3)n[nH]c2c1F [Example 329] | – | 10 to 31.6 | – | A (A represents a pKi value ≥10 (Ki≤0.1 nM)) | A (A represents a pKi value ≥10 (Ki≤0.1 nM))
CCc1cc(O)ccc1-c1ccc2c(-c3nc(C4=CCN([C@H]5CC[C@](C)(O)CC5)C4)c[nH]3)n[nH]c2c1F [Example 330] | – | 10 to 31.6 | 0.1 to 1 | A (A represents a pKi value ≥10 (Ki≤0.1 nM)) | –
CCc1cc(O)ccc1-c1ccc2c(-c3nc(C4=CCN(C5CCC(CO)CC5)C4)c[nH]3)n[nH]c2c1F (stereo not drawn) [Example 331] | – | 10 to 31.6 | 0.1 to 1 | A (A represents a pKi value ≥10 (Ki≤0.1 nM)) | –
CCc1cc(O)ccc1-c1ccc2c(-c3nc(C4=CCN(C[C@H](C)CO)C4)c[nH]3)n[nH]c2c1F [Example 332] | 0.1 to 1 | 10 to 31.6 | 0.1 to 1 | – | –

SMILES | Ki (JAK1) [nM] | IC50 [1] [nM] | Ki (JAK2) [nM] | JAK1 pKi (JAK1) | JAK2 pKi (JAK2)
CCc1cc(O)ccc1-c1ccc2c(-c3nc(C4=CCN(C(=O)CN(C)C)C4)c[nH]3)n[nH]c2c1F [Example 333] | 0.1 to 1 | 10 to 31.6 | – | – | A (A represents a pKi value ≥10 (Ki≤0.1 nM))
CCc1cc(O)ccc1-c1ccc2c(-c3nc(C4=CCN(CCC5(O)CCC5)CC4)c[nH]3)n[nH]c2c1F [Example 334] | 0.1 to 1 | 10 to 31.6 | 0.1 to 1 | – | –
CCc1cc(O)ccc1-c1ccc2c(-c3nc(C4=CC5CN(C)CCN5CC4)c[nH]3)n[nH]c2c1F (stereo not drawn) [Example 335] | 0.1 to 1 | 10 to 31.6 | 0.1 to 1 | – | –
CCc1cc(O)ccc1-c1ccc2c(-c3nc(C4=CC(C)(C)NC4)c[nH]3)n[nH]c2c1F [Example 336] | 0.1 to 1 | 10 to 31.6 | 0.1 to 1 | – | –
CCc1cc(O)ccc1-c1ccc2c(-c3nc(C4=CC[C@H](C)N([C@H]5C[C@H](O)C5)C4)c[nH]3)n[nH]c2c1F [Example 337] | 0.1 to 1 | 10 to 31.6 | 0.1 to 1 | – | –
CCc1cc(O)ccc1-c1ccc2c(-c3nc(C4=CCCN(CCC5(O)CC5)C4)c[nH]3)n[nH]c2c1F [Example 338] | 0.1 to 1 | 10 to 31.6 | 0.1 to 1 | – | –
CCc1cc(O)ccc1-c1ccc2c(-c3nc(C4=C[C@@H](C)NCC4)c[nH]3)n[nH]c2c1F [Example 339] | 0.1 to 1 | 10 to 31.6 | 0.1 to 1 | – | –
CCc1cc(O)ccc1-c1ccc2c(-c3nc(C4=C[C@H](CC(=O)N(CC)CC)NC4)c[nH]3)n[nH]c2c1F [Example 340] | – | 10 to 31.6 | – | A (A represents a pKi value ≥10 (Ki≤0.1 nM)) | A (A represents a pKi value ≥10 (Ki≤0.1 nM))
CCc1cc(O)ccc1-c1ccc2c(-c3nc(C4=CCN([C@H]5CC[C@@](C)(O)CC5)C4)c[nH]3)n[nH]c2c1F [Example 341] | – | 10 to 31.6 | – | A (A represents a pKi value ≥10 (Ki≤0.1 nM)) | A (A represents a pKi value ≥10 (Ki≤0.1 nM))
CCc1cc(O)ccc1-c1ccc2c(-c3nc(C4=CCN(CCC(=O)NC)C4)c[nH]3)n[nH]c2c1F [Example 342] | 0.1 to 1 | 10 to 31.6 | 0.1 to 1 | – | –
CCc1cc(O)ccc1-c1ccc2c(-c3nc(C4=CCNC5(CC5)C4)c[nH]3)n[nH]c2c1 [Example 343] | 0.1 to 1 | 10 to 31.6 | 0.1 to 1 | – | –
CCc1cc(O)ccc1-c1ccc2c(-c3nc(C4=C[C@@H](CO)N(C)C4)c[nH]3)n[nH]c2c1F [Example 344] | 0.1 to 1 | 10 to 31.6 | 0.1 to 1 | – | –
CCc1cc(O)ccc1-c1ccc2c(-c3nc(C4=CCNC(CC)C4)c[nH]3)n[nH]c2c1F (stereo not drawn) [Example 346] | 1 to 10 | 10 to 31.6 | 0.1 to 1 | – | –
CCc1cc(O)ccc1-c1ccc2c(-c3nc(C4=CCN[C@@H](CO)C4)c[nH]3)n[nH]c2c1F [Example 347] | – | 31.6 to 100 | – | A (A represents a pKi value ≥10 (Ki≤0.1 nM)) | A (A represents a pKi value ≥10 (Ki≤0.1 nM))
CCc1cc(O)ccc1-c1ccc2c(-c3nc(C4=C[C@H](CO)NCC4)c[nH]3)n[nH]c2c1F [Example 348] | 0.1 to 1 | 31.6 to 100 | – | – | A (A represents a pKi value ≥10 (Ki≤0.1 nM))
CCc1cc(O)ccc1-c1ccc2c(-c3nc(C4=CCN(C(=O)CNC)C4)c[nH]3)n[nH]c2c1F [Example 349] | 0.1 to 1 | 31.6 to 100 | – | – | A (A represents a pKi value ≥10 (Ki≤0.1 nM))
CCc1cc(O)ccc1-c1ccc2c(-c3nc(C4=CCN(C(=O)CN5CCCC5)C4)c[nH]3)n[nH]c2c1F [Example 351] | 0.1 to 1 | 31.6 to 100 | – | – | A (A represents a pKi value ≥10 (Ki≤0.1 nM))
CCc1cc(O)ccc1-c1ccc2c(-c3nc(C4=CCNC5(CC5)C4)c[nH]3)n[nH]c2c1F [Example 352] | 0.1 to 1 | 31.6 to 100 | 0.1 to 1 | – | –
CCOC(=O)C1=C(c2c[nH]c(-c3n[nH]c4cc(-c5ccc(O)cc5CC)ccc34)n2)CCNC1 [Example 354] | 0.1 to 1 | 31.6 to 100 | 0.1 to 1 | – | –
